Experimental data from patent US20130331415A1, “COMPOSITIONS COMPRISING WNT INHIBITORS FOR TREATING CANCER” (priority 2010, published 2013).

Tests used:
RPMI 8226 myeloma cells = test: Cell viability by DiOC6 staining, flow cytometry: RPMI 8226; format: cell-based, human; conditions: three days; EA or CIC 30 μM; thalidomide 20 μM; lenalidomide 80 μM
Protocol: (§1) The lymphoma cell lines LAM-53, SU-DHL-4, Daudi and Raji, as well as the myeloma cell lines OPM-2, RPMI-8226 and U-266 (all obtained from DSMZ, Collection of Microorganisms and Cell Culture, Braunschweig, Germany) were cultured in RPMI-1640 Medium consisting of 10% heat-inactivated fetal calf serum (FCS, Invitrogen, Karlsruhe, Germany), 2.5% 1 M HEPES, and 1× penicillin/streptomycin (all from PAA Laboratories GmbH, Cölbe, Germany). Cells were cultured at a density of 3.3×10^5 cells ml^−1 andincubated at 37° C. with 5% CO2 and 95% humidity.
(§2) After addition of 5 μl PI-solution (100 μg/ml) the cells were analyzed by FACS.
(§3) Experiments were performed as reported recently.

PBL = test: Cell viability by DiOC6 staining, flow cytometry: PBL of healthy individuals; format: cell-based, human
Protocol: as §2, §3

OPM-2 myeloma cells = test: Cell viability by DiOC6 staining, flow cytometry: OPM-2; format: cell-based, human; conditions: for viability of OPM-2 cells, single drug or combination: three days, EA or CIC 30 μM, thalidomide 40 μM, lenalidomide 12 μM
Protocol: as §1, §2, §3

[1] = test system: lymphoma cell lines (OCI-Ly8 LAM53, SU-DHL-4 and Raji); test: Viability of lymphoma cell lines in vitro; format: cell-based, human
Protocol: as §2, §3

PBMC = test: Cell viability by DiOC6 staining, flow cytometry: PBMC of healthy individuals; format: cell-based, human
Protocol: as §2
PBMCs were isolated from blood of healthy donors by Ficoll-Hypaque density gradient centrifugation. Blood from buffy coats was mixed 1:2 with PBS/1% BSA (both PAA, Cölbe, Germany) and used for a ficoll gradient (LymphoPrep, PAA, Cölbe, Germany). After the centrifugation at 800 g for 30 minutes, the leukocyte layer was removed and transferred to new tubes.
as §3

U266 myeloma cells = test: Cell viability by DiOC6 staining, flow cytometry: U266; format: cell-based, human; conditions: three days; EA or CIC 30 μM; thalidomide 160 μM
Protocol: as §1, §2, §3

primary CLL cells = conditions: cited from earlier work
primary myeloma cells = test: Viability of primary myeloma cells from bone marrow of patients; format: cell-based, human; conditions: three days; preliminary data
Protocol: Bone marrow samples from patients with myeloma were taken after informed consent, single cell suspensions generated and cells ficolled. Cells were incubated with or without EA for three days and measured for viability.
Results represent data from two separate experiments. Data are shown as mean.
Bone marrow samples from patients with myeloma were taken after informed consent, single cell suspensions generated and cells ficolled. Cells were incubated with or without CIC for three days and measured for viability.
Bone marrow samples from patients with myeloma were taken after informed consent, single cell suspensions generated and cells ficolled. Cells were incubated with or without GF for three days and measured for viability.

MPC11 myeloma cells = format: in vivo; conditions: for animals in which solid tumor nodules formed: gavage 450 μg per animal daily; for overall survival compared to control group: oral 450 μg/day, 750 μg lenalidomide/day in combination
Protocol: Mice were treated orally with 450 μg/day EA and 750 μg lenalidomide/day, respectively. Overall survival and tumor growth were measured. Tumor volume was calculated as follows: volume=length×width^2×0.52.
Mice were treated orally with 450 μg/day CIC and 750 μg lenalidomide/day, respectively. Overall survival and tumor growth were measured. Tumor volume was calculated as follows: volume=length×width^2×0.52.
Mice were treated orally with 450 μg/day PO. Overall survival and tumor growth were measured. Tumor volume was calculated as follows: volume=length×width^2×0.52.

[2] = test system: Wnt/beta catenin signaling; conditions: 960 compounds screened; cited from earlier work
[3] = cited from earlier work
SU-DHL-4 lymphoma cells = test: Cell viability by DiOC6 staining, flow cytometry: SU-DHL-4; format: cell-based; conditions: Homo sapiens, EA 30 μM, after 72 h, read-out: relative viability, SU-DHL-4
Protocol: as §1, §2, §3

Raji lymphoma cells = test: Cell viability by DiOC6 staining, flow cytometry: Raji; format: cell-based, human; conditions: for viability of Raji cells, single drug or combination: EA or CIC 30 μM, data not shown
Protocol: as §1, §2, §3

[4] = test system: OCI-Ly8 LAM53 lymphoma cells; test: Cell viability by DiOC6 staining, flow cytometry: OCI-Ly8 LAM53; format: cell-based; conditions: Homo sapiens, EA 30 μM, after 72 h, read-out: relative viability, LAM-53
Protocol: as §1, §2, §3

Daudi lymphoma cells = test: Cell viability by DiOC6 staining, flow cytometry: Daudi; format: cell-based, human; conditions: EA or CIC 30 μM; data not shown
Protocol: as §1, §2
as §1, with “and incubated” for “andincubated”
as §3

[5] = test system: myeloma cells (OPM-2, U266 and RPMI 8226); test: Viability of myeloma cell lines, mean IC50 over OPM-2, U266 and RPMI 8226; format: cell-based, human
Protocol: A mean IC50 value in myeloma cells was determined using the mean of the IC50 results determined in OPM-2, U266 and RPMI 8226 cells.

Nc1cccc2c1CN(C1CCC(=O)NC1=O)C2=O (racemic) [lenalidomide, (RS)-3-(4-amino-1-oxo-3H-isoindol-2-yl)piperidine-2,6-dione]
viability of RPMI-8226 cells, single drug or combination (RPMI 8226 myeloma cells): significant decrease in viability
effect on normal PBL (PBL): marginal
viability of OPM-2 cells, single drug or combination (OPM-2 myeloma cells): significant decrease in viability
viability of lymphoma cell lines in vitro [1]: no effect
effect on normal PBMC (PBMC): marginal

O=C1CCC(N2C(=O)c3ccccc3C2=O)C(=O)N1 (racemic) [thalidomide, (RS)-2-(2,6-dioxopiperidin-3-yl)-1H-isoindole-1,3(2H)-dione]
viability of RPMI-8226 cells, single drug or combination (RPMI 8226 myeloma cells): significant decrease in viability
viability of U-266 cells, single drug or combination (U266 myeloma cells): significant decrease in viability
effect on normal PBL (PBL): no effect
viability of OPM-2 cells, single drug or combination (OPM-2 myeloma cells): significant decrease in viability
viability of lymphoma cell lines in vitro [1]: no effect
effect on normal PBMC (PBMC): no effect

Cc1cc(C2CCCCC2)n(O)c(=O)c1 [CIC, ciclopirox olamine]
cell death in primary CLL cells (primary CLL cells): selectively induced cell death
growth of primary myeloma cells from bone marrow of patients (primary myeloma cells): inhibits the growth
effect on normal PBL (PBL): marginal
tumor growth compared to control mice (MPC11 myeloma cells; oral 450 μg/day CIC, 750 μg lenalidomide/day): significantly reduced
viability of lymphoma cell lines in vitro [1]: significantly (p<0.05) decreased the viability
effect on normal PBMC (PBMC): marginal
result of TOPflash reporter screen [2]: Wnt/beta catenin inhibitors

Cc1cc(C2CCCCC2)n(O)c(=O)c1 [Ciclopirox, 6-cyclohexyl-1-hydroxy-4-methyl-1,2-dihydropyridin-2-one]
solubility in methanol [3]: soluble

C=C(CC)C(=O)c1ccc(OCC(=O)O)c(Cl)c1Cl [EA, 2-[2,3-dichloro-4-(2-methylidenebutanoyl)phenoxy]acetic acid]
cell death in primary CLL cells (primary CLL cells): selectively induced cell death
viability at 30 µM (SU-DHL-4 lymphoma cells): 97.6%
growth of primary myeloma cells from bone marrow of patients (primary myeloma cells): inhibits the growth
tumor growth compared to mice treated with lenalidomide alone (MPC11 myeloma cells; oral 450 μg/day EA, 750 μg lenalidomide/day, p<0.001): significantly reduced
viability at 30 µM (Raji lymphoma cells; Homo sapiens, Raji, EA 30 μM, after 72 h, read-out: relative viability, Raji): 78.9%
viability of lymphoma cell lines in vitro [1]: significantly (p<0.05) decreased the viability
result of TOPflash reporter screen [2]: Wnt/beta catenin inhibitors
viability at 30 µM [4]: 91%
solubility in water [3]: slightly solube
solubility in most organic solvents ([3]; e.g. alcohols, chloroform, and benzene): soluble

CC(C)C[C@H](NC(=O)[C@H](Cc1ccccc1)NC(=O)c1cnccn1)B(O)O [bortezomib]
viability of OPM-2 cells, single drug or combination (OPM-2 myeloma cells): significant decrease in viability

COc1cccc2c1C(=O)c1c(O)c3c(c(O)c1C2=O)C[C@@](O)(C(=O)CO)C[C@@H]3O[C@H]1C[C@H](N)[C@H](O)[C@H](C)O1 [doxorubicin]
viability of Raji cells, single drug or combination (Raji lymphoma cells): significant decrease in viability
viability of Daudi cells, single drug or combination (Daudi lymphoma cells): significant decrease in viability

COC1=CC(=O)C[C@@H](C)[C@]12Oc1c(Cl)c(OC)cc(OC)c1C2=O [griseofulvin, (2S,6′R)-7-chloro-2′,4,6-trimethoxy-6′-methyl-3H,4′H-spiro[1-benzofuran-2,1′-cyclohex[2]ene]-3,4′-dione]
growth of primary myeloma cells from bone marrow of patients (primary myeloma cells): inhibits the growth
animals in which solid tumor nodules formed (MPC11 myeloma cells): 5 of 6
overall survival compared to control group (MPC11 myeloma cells): significantly (p<0.05) longer
viability of myeloma cell lines in vitro [5]: significantly decreased the viability
viability of lymphoma cell lines in vitro [1]: significantly (p<0.05) decreased the viability

Cc1cc(CC(C)CC(C)(C)C)n(O)c(=O)c1 (stereo not shown) [piroctone olamine]
growth of primary myeloma cells from bone marrow of patients (primary myeloma cells): inhibits the growth
effect on normal PBL (PBL): marginal
animals in which solid tumor nodules formed (MPC11 myeloma cells): 5 of 6
overall survival compared to control group (MPC11 myeloma cells): significantly (p<0.05) longer
mode of cytotoxic activity (OPM-2 myeloma cells; 0.1 uM, three days (FIG. 12)): induction of apoptosis
viability of myeloma cell lines in vitro [5]: significantly decreased the viability
viability of lymphoma cell lines in vitro [1]: significantly (p<0.05) decreased the viability

rituximab
viability of Raji cells, single drug or combination (Raji lymphoma cells): significantly decreased
viability of Daudi cells, single drug or combination (Daudi lymphoma cells): significantly decreased
